Where two headings read alike, the source gives them in different places.
Legend:
S. aureus ATCC 29213 [1] = assay: Minimum inhibitory concentration (MIC) assay; format: cell-based, Staphylococcus aureus
Description: (§1) (a) Minimum Inhibitory Concentration (MIC) Assay
(§2) The culture media were as described above.
(§3) The assays included both negative (culture medium with no micro-organisms) and positive (culture medium plus diluting solvent plus micro-organism) controls.

P. acnes NCTC 737 [2] = assay: Disc diffusion assay (DDA), also supplemented;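 note: paper disc carrying compound placed on inoculated Wilkins-Chalgren Anaerobe agar pH 6.0, with lipid or NaCl supplement where listed, anaerobic 37 °C for 72 h, inhibition zone diameter read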
S. aureus ATCC 29213 [3] = assay: Disc diffusion assay (DDA), also supplemented
S. aureus ATCC 29213 [4] = assay: Synergy disc diffusion assay (SDDA), also supplemented;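 note: disc diffusion on Mueller-Hinton agar at pH 7.2, aerobic incubation at 37 °C lasting 19-20 h, two compounds assessed jointly for combined antimicrobial effect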
Method: (e) Synergy Disc Diffusion Assay (SDDA)
This is a variation on the DDA method, in which two compounds are tested together for their combined antimicrobial activity.
Two test compounds A and B were placed on a single paper disc and the above described DDA procedure repeated.
(f) Supplemented Disc Diffusion Assays
For assays using S. aureus ATCC 29213 the supplements used were sodium chloride (100 mM), lipid (Tween™ 80 at 1% v/v) and horse serum (5% v/v).

P. acnes NCTC 737 [5] = assay: Minimum inhibitory concentration (MIC) assay; format: cell-based, Propionibacterium acnes
Description: as §1, §2, §3

P. acnes NCTC 737 [6] = assay: Synergy disc diffusion assay (SDDA), also supplemented
S. aureus ATCC 29213 [7] = assay: Minimum bactericidal concentration (MBC) assay; format: cell-based, Staphylococcus aureus
Method: (§4) (b) Minimum Bactericidal Concentration (MBC) Assay
(§5) Following incubation they were examined visually for bacterial growth.

P. acnes NCTC 737 [8] = assay: Minimum bactericidal concentration (MBC) assay; format: cell-based, Propionibacterium acnes
Method: as §4, §5

[9] = copper salt alone, S. aureus ATCC 29213
[10] = copper salt alone, 200 μg per disc (silicate 62 μg), sodium chloride (100 mM)
[11] = copper salt + TBHQ on one disc, 200 μg of each (silicate 62 μg), unsupplemented
[12] = copper salt + TBHQ vs larger zone of either compound alone, unsupplemented
[13] = copper salt + TBHQ, salt and serum supplements
[14] = copper salt + TBHQ, unsupplemented
[15] = copper salt alone, P. acnes NCTC 737
[16] = copper salt + TBHQ, salt and lipid (1% (v/v) Tween 80)

Compound: CC(=O)[O-].[Cu+] [Copper (I) acetate]
- MIC (S. aureus ATCC 29213 [1]): >250 µg/mL
- DDA (P. acnes NCTC 737 [2]): 52.04 mm
- DDA + lipid (P. acnes NCTC 737 [2]): 45.46 mm
- DDA + salt (P. acnes NCTC 737 [2]): 49.48 mm
- DDA + salt & lipid (P. acnes NCTC 737 [2]): 52.15 mm
- DDA (S. aureus ATCC 29213 [3]): 0 mm
- DDA + lipid (S. aureus ATCC 29213 [3]): 0 mm
- DDA + salt (S. aureus ATCC 29213 [3]): 0 mm
- DDA + salt & serum (S. aureus ATCC 29213 [3]): 0 mm
- SDDA area increase (S. aureus ATCC 29213 [4]): 16.25%
- SDDA increase (S. aureus ATCC 29213 [4]): 3.16 mm
- SDDA with TBHQ (S. aureus ATCC 29213 [4]): 43.58 mm
- SS SDDA area increase (S. aureus ATCC 29213 [4]): −51.82%
- SS SDDA increase (S. aureus ATCC 29213 [4]): −13.36 mm
- SS SDDA with TBHQ (S. aureus ATCC 29213 [4]): 30.32 mm
- MIC (P. acnes NCTC 737 [5]): 7.8 µg/mL
- MIC/MBC ratio (P. acnes NCTC 737 [5]): 0.25
- SDDA area increase (P. acnes NCTC 737 [6]): 84.62%
- SDDA increase (P. acnes NCTC 737 [6]): 18.67 mm
- SDDA with TBHQ (P. acnes NCTC 737 [6]): 70.71 mm
- SL SDDA area increase (P. acnes NCTC 737 [6]): 59.77%
- SL SDDA increase (P. acnes NCTC 737 [6]): 13.77 mm
- SL SDDA with TBHQ (P. acnes NCTC 737 [6]): 65.91 mm
- MBC (S. aureus ATCC 29213 [7]): >250 µg/mL
- MBC (P. acnes NCTC 737 [8]): 31.25 µg/mL

Compound: Copper (I) oxide
- MIC (S. aureus ATCC 29213 [1]; [9]): >250 µg/mL
- DDA + lipid (P. acnes NCTC 737 [2]; copper salt alone, 200 μg per disc (silicate 62 μg), 1% (v/v) Tween 80): 37.42 mm
- DDA + salt & lipid (P. acnes NCTC 737 [2]; copper salt alone, 200 μg per disc (silicate 62 μg), salt and 1% (v/v) Tween 80): 43.49 mm
- DDA + salt (P. acnes NCTC 737 [2]; [10]): 44.85 mm
- DDA + lipid (S. aureus ATCC 29213 [3]; copper salt alone, 200 μg per disc (silicate 62 μg), Tween 80 at 1% v/v): 0 mm
- DDA + salt & serum (S. aureus ATCC 29213 [3]; copper salt alone, 200 μg per disc (silicate 62 μg), salt and horse serum (5% v/v)): 0 mm
- DDA + salt (S. aureus ATCC 29213 [3]; [10]): 0 mm
- SS SDDA with TBHQ (S. aureus ATCC 29213 [4]; copper salt + TBHQ on one disc, 200 μg of each (silicate 62 μg), salt and serum supplements): 45.26 mm
- SDDA with TBHQ (S. aureus ATCC 29213 [4]; [11]): 57.05 mm
- SDDA increase (S. aureus ATCC 29213 [4]; [12]): 16.63 mm
- SS SDDA area increase (S. aureus ATCC 29213 [4]; [13]): 7.37%
- SS SDDA increase (S. aureus ATCC 29213 [4]; [13]): 1.58 mm
- SDDA area increase (S. aureus ATCC 29213 [4]; [14]): 99.21%
- MIC (P. acnes NCTC 737 [5]; [15]): 1.95 µg/mL
- MIC/MBC ratio (P. acnes NCTC 737 [5]; [15]): 0.06
- SL SDDA with TBHQ (P. acnes NCTC 737 [6]; copper salt + TBHQ on one disc, 200 μg of each (silicate 62 μg), salt and lipid (1% (v/v) Tween 80)): 51.73 mm
- SDDA with TBHQ (P. acnes NCTC 737 [6]; [11]): 50.06 mm
- SDDA increase (P. acnes NCTC 737 [6]; [12]): 1.25 mm
- SL SDDA area increase (P. acnes NCTC 737 [6]; [16]): 41.48%
- SL SDDA increase (P. acnes NCTC 737 [6]; [16]): 8.24 mm
- SDDA area increase (P. acnes NCTC 737 [6]; [14]): 5.18%
- MBC (S. aureus ATCC 29213 [7]; [9]): >250 µg/mL
- MBC (P. acnes NCTC 737 [8]; [15]): 31.25 µg/mL

Compound: On1ccccc1=S.On1ccccc1=S.[Cu] [Copper (II) pyrithione]
- MIC (S. aureus ATCC 29213 [1]): 0.49 µg/mL
- MIC/MBC ratio (S. aureus ATCC 29213 [1]): 1
- DDA (P. acnes NCTC 737 [2]): 56.42 mm
- DDA + lipid (P. acnes NCTC 737 [2]): 22.38 mm
- DDA + salt (P. acnes NCTC 737 [2]): 43.21 mm
- DDA + salt & lipid (P. acnes NCTC 737 [2]): 33.37 mm
- DDA (S. aureus ATCC 29213 [3]): 20.51 mm
- DDA + lipid (S. aureus ATCC 29213 [3]): 15.25 mm
- DDA + salt (S. aureus ATCC 29213 [3]): 21.48 mm
- DDA + salt & serum (S. aureus ATCC 29213 [3]): 17.86 mm
- SDDA area increase (S. aureus ATCC 29213 [4]): 150.13%
- SDDA increase (S. aureus ATCC 29213 [4]): 19.29 mm
- SDDA with TBHQ (S. aureus ATCC 29213 [4]): 52.45 mm
- SS SDDA area increase (S. aureus ATCC 29213 [4]): 66.12%
- SS SDDA increase (S. aureus ATCC 29213 [4]): 9.29 mm
- SS SDDA with TBHQ (S. aureus ATCC 29213 [4]): 41.43 mm
- MIC (P. acnes NCTC 737 [5]): 0.24 µg/mL
- MIC/MBC ratio (P. acnes NCTC 737 [5]): 0.5
- SDDA area increase (P. acnes NCTC 737 [6]): 18.55%
- SDDA increase (P. acnes NCTC 737 [6]): 5.01 mm
- SDDA with TBHQ (P. acnes NCTC 737 [6]): 61.43 mm
- SL SDDA area increase (P. acnes NCTC 737 [6]): 7.64%
- SL SDDA increase (P. acnes NCTC 737 [6]): 1.25 mm
- SL SDDA with TBHQ (P. acnes NCTC 737 [6]): 34.63 mm
- MBC (S. aureus ATCC 29213 [7]): 0.49 µg/mL
- MBC (P. acnes NCTC 737 [8]): 0.49 µg/mL
